Test results published in ChEMBL document CHEMBL5696442, “Discovery of type II inhibitors of TGFβ-activated kinase 1 (TAK1) and mitogen-activated protein kinase kinase kinase kinase 2 (MAP4K2)” (J Med Chem, 2015).
Calls of active or inactive are those of the source. No cut-off for these calls is given here.

What was measured:
[1] = target: Phosphatidylinositol 3-kinase C2 domain-containing subunit gamma (Homo sapiens) (UniProt O75747); assay: Inhibition of PIK3C2G (unknown origin) at 1 uM by Ambit Kinomescan binding assay relative to control; values are per cent of control
[2] = tested on: Proto-oncogene tyrosine-protein kinase receptor Ret (Homo sapiens), P07949 [V804M]; assay: Inhibition of RET V804M mutant (unknown origin) at 1 uM by Ambit Kinomescan binding assay relative to control; values are per cent of control
Chain of Proto-oncogene tyrosine-protein kinase receptor Ret (Homo sapiens), P07949 [V804M] (P07949 whole entry V804M): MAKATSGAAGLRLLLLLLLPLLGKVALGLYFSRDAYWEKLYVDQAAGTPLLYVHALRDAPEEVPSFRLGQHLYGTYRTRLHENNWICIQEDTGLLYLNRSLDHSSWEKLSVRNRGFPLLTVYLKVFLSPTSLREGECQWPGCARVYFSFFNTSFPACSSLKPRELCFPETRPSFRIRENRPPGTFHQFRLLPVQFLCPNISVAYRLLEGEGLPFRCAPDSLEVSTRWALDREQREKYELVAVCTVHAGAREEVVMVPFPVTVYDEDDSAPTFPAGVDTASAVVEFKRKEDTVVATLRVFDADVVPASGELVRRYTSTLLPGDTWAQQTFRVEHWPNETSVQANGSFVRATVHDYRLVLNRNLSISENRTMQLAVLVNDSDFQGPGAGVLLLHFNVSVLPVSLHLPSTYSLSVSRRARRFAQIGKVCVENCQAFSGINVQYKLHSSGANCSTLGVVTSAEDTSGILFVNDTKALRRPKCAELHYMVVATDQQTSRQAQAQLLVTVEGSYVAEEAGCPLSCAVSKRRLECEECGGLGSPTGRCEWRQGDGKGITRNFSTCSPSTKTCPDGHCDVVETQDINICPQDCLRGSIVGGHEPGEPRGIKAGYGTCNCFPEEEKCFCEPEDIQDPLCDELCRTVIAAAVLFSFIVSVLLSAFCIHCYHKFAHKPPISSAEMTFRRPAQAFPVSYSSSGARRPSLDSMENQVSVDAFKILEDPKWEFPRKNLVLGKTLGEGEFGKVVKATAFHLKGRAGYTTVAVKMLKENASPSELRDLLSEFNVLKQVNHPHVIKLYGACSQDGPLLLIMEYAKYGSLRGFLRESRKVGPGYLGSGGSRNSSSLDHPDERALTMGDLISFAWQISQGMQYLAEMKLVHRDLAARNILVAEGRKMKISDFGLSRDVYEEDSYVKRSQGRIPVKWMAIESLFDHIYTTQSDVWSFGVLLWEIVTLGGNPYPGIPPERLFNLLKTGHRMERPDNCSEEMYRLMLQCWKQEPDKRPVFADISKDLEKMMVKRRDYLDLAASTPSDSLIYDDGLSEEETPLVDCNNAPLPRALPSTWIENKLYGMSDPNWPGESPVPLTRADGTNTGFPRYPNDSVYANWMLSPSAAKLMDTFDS

[3] = target: TRAF2 and NCK-interacting protein kinase (Homo sapiens) (UniProt Q9UKE5); assay: Inhibition of ZC2 Lys2 labeling site in human A-375 cells at 5 uM by KiNativ Profiling analysis relative to control; assay type: cell-based
[4] = target: Casein kinase I isoform gamma-1 (Homo sapiens) (UniProt Q9HCP0); assay: Inhibition of CSNK1G1 (unknown origin) at 10 uM by Ambit Kinomescan binding assay
[5] = target: Dual specificity testis-specific protein kinase 1 (Homo sapiens) (UniProt Q15569); assay: Inhibition of TESK1 (unknown origin) at 10 uM by Ambit Kinomescan binding assay
[6] = target: Non-receptor tyrosine-protein kinase TYK2 (Homo sapiens) (UniProt P29597); assay: Inhibition of TYK2 JH2 pseudokinase domain (unknown origin) at 10 uM by Ambit Kinomescan binding assay
Chain of Non-receptor tyrosine-protein kinase TYK2 (Homo sapiens) (P29597 whole entry, the tested form may be a part): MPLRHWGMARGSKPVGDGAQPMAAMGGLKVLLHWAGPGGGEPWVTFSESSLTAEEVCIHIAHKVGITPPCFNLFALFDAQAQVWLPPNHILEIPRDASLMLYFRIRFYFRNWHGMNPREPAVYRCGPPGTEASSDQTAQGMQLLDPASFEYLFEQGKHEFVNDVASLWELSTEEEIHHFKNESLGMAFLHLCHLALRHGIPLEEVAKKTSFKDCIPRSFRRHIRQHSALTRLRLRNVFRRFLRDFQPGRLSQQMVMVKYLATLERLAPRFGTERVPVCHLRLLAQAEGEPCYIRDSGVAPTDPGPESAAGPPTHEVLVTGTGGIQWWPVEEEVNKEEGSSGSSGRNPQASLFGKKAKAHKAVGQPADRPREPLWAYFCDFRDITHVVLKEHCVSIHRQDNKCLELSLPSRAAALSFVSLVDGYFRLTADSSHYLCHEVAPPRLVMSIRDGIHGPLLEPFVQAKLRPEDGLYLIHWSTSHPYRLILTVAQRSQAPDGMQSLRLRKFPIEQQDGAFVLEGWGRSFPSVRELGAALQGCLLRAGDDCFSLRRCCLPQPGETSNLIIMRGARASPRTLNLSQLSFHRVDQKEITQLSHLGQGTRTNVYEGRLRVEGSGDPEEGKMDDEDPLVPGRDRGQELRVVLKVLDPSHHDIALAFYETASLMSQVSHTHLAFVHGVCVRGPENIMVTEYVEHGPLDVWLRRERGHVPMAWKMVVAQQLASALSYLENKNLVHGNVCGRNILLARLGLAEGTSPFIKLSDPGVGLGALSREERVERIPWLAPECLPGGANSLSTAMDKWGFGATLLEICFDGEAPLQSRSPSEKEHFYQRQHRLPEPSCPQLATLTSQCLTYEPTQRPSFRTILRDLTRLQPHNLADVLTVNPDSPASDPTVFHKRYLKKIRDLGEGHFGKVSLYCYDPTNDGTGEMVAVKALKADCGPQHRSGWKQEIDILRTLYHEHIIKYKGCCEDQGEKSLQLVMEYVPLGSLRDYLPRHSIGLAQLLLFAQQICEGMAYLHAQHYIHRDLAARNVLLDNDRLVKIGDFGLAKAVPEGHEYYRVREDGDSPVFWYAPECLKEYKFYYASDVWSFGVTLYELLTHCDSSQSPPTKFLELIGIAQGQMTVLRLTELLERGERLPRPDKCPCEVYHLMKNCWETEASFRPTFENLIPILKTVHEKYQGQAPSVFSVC

[7] = target: T1, Mitogen-activated protein kinase kinase kinase 2 (Homo sapiens) (UniProt Q9Y2U5); assay: Inhibition of MAP3K2 Lys2 labeling site in human A-375 cells at 0.05 uM by KiNativ Profiling analysis relative to control; assay type: cell-based
T1 sequence (whole entry): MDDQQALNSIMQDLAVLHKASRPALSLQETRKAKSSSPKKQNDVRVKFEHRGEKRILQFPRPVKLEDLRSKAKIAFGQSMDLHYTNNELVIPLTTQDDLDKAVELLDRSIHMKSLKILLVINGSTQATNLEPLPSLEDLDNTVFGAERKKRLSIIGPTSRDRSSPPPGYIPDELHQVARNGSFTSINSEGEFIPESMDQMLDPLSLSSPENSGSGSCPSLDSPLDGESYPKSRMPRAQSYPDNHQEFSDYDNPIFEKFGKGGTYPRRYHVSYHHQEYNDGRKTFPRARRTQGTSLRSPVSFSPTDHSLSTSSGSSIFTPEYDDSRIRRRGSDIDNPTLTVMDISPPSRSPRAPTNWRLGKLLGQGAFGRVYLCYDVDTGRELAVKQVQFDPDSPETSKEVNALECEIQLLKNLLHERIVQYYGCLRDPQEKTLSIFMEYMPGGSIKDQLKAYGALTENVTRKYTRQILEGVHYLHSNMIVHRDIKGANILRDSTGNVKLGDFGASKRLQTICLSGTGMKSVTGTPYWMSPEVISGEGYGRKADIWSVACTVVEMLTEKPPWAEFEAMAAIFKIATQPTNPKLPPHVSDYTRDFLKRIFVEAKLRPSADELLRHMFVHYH

[8] = target: Mitogen-activated protein kinase kinase kinase kinase 4 (Homo sapiens, UniProt O95819); assay: Inhibition of ZC1/HGK K2 labeling site in human Huh-7 cells at 10 uM by KiNativ Profiling analysis relative to control; assay type: cell-based
Chain of Mitogen-activated protein kinase kinase kinase kinase 4 (O95819 2-1239 limits assumed): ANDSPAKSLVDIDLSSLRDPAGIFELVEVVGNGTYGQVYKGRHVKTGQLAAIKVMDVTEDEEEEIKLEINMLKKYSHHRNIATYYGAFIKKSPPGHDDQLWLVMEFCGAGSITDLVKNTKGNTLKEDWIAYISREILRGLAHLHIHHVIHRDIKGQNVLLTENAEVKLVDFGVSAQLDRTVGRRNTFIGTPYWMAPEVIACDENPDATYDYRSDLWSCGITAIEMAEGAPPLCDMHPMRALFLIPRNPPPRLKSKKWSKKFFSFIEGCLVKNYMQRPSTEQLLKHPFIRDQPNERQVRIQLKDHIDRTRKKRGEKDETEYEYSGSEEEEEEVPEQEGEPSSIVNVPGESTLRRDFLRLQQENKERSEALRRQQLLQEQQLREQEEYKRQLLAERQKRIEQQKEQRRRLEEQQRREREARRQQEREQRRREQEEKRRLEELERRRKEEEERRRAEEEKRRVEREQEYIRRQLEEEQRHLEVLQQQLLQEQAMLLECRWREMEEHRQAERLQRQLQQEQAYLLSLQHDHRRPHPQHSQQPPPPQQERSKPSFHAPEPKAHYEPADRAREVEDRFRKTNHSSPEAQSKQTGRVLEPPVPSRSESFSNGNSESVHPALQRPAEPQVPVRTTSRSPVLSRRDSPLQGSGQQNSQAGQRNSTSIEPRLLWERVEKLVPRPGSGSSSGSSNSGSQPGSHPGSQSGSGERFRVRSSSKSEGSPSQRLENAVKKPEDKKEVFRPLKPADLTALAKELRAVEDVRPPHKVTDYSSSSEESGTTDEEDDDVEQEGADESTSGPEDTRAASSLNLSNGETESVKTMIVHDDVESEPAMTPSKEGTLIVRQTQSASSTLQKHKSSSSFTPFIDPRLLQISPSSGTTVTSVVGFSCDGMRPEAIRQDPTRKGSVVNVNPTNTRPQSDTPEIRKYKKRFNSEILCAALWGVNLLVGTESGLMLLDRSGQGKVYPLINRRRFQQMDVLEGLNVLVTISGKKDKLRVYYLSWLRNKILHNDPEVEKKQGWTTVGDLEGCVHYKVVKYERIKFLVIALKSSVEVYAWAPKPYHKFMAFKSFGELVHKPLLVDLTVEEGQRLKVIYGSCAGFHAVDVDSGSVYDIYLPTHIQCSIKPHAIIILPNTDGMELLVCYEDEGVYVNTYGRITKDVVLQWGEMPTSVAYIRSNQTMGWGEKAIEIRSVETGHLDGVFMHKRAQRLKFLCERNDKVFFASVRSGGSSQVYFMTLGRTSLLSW

[9] = target: T2, Serine/threonine-protein kinase TAO2 (Homo sapiens) (UniProt Q9UL54); assay: Inhibition of TAO2 K2 labeling site in human Huh-7 cells at 10 uM by KiNativ Profiling analysis relative to control; assay type: cell-based
T2 sequence (whole entry): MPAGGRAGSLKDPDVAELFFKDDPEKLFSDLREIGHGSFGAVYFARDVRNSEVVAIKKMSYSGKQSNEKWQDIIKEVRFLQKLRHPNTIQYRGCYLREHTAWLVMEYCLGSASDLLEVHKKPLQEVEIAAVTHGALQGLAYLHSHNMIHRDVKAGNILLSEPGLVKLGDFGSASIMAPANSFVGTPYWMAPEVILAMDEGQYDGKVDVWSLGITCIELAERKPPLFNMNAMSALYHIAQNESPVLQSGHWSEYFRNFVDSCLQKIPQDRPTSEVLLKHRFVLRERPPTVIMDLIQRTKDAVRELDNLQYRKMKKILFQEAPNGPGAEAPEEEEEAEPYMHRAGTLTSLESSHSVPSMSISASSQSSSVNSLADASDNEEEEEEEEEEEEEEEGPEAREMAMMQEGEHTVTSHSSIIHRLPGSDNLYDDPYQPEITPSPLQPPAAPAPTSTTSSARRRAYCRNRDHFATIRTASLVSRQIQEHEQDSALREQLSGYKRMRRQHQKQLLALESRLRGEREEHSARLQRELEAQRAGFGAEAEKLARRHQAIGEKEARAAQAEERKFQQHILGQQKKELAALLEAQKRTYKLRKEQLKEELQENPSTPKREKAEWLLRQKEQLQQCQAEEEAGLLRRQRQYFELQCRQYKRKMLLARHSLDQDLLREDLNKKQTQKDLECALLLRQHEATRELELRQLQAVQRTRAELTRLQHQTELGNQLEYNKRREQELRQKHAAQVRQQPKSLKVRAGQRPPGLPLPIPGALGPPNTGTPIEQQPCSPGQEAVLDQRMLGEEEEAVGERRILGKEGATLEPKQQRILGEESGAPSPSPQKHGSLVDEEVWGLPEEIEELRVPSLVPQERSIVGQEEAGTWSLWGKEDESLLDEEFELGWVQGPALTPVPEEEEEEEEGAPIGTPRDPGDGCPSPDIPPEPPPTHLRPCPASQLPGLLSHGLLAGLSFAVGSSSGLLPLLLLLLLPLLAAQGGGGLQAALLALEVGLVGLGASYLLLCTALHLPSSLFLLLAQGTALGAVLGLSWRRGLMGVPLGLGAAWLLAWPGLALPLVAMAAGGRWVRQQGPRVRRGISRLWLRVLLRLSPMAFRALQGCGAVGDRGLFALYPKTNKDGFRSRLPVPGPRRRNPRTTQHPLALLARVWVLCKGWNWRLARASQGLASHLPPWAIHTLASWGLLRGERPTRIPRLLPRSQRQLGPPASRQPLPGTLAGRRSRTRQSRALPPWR

[10] = target: Calcium/calmodulin-dependent protein kinase type II subunit alpha (Homo sapiens) (UniProt Q9UQM7); assay: Inhibition of CAMK2a K2 labeling site in human Huh-7 cells at 1 uM by KiNativ Profiling analysis relative to control; assay type: cell-based
Chain of Calcium/calmodulin-dependent protein kinase type II subunit alpha (Homo sapiens) (Q9UQM7 whole entry): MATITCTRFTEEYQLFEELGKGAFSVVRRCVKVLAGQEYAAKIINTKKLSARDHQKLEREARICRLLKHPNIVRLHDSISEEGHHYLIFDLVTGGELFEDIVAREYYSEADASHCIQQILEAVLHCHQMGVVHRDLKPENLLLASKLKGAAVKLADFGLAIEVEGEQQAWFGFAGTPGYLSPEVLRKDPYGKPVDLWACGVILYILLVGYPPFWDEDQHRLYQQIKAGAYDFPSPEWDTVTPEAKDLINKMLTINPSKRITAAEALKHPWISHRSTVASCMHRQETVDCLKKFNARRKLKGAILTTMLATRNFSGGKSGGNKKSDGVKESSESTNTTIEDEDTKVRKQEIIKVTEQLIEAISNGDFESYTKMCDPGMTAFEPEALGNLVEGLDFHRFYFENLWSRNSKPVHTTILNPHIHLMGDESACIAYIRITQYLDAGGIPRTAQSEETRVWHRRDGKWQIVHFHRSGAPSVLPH

[11] = target: Muscle, skeletal receptor tyrosine-protein kinase (Homo sapiens) (UniProt O15146); assay: Inhibition of MUSK (unknown origin) at 10 uM by Ambit Kinomescan binding assay relative to control; values are per cent of control
Ephrin type-A receptor 2 = Ephrin type-A receptor 2 (Homo sapiens, UniProt P29317); assay: Inhibition of EphA2 ACT labeling site in human Huh-7 cell lysate at 1 uM by KiNativ Profiling analysis relative to control; assay type: subcellular
Chain of Ephrin type-A receptor 2 (P29317 whole entry): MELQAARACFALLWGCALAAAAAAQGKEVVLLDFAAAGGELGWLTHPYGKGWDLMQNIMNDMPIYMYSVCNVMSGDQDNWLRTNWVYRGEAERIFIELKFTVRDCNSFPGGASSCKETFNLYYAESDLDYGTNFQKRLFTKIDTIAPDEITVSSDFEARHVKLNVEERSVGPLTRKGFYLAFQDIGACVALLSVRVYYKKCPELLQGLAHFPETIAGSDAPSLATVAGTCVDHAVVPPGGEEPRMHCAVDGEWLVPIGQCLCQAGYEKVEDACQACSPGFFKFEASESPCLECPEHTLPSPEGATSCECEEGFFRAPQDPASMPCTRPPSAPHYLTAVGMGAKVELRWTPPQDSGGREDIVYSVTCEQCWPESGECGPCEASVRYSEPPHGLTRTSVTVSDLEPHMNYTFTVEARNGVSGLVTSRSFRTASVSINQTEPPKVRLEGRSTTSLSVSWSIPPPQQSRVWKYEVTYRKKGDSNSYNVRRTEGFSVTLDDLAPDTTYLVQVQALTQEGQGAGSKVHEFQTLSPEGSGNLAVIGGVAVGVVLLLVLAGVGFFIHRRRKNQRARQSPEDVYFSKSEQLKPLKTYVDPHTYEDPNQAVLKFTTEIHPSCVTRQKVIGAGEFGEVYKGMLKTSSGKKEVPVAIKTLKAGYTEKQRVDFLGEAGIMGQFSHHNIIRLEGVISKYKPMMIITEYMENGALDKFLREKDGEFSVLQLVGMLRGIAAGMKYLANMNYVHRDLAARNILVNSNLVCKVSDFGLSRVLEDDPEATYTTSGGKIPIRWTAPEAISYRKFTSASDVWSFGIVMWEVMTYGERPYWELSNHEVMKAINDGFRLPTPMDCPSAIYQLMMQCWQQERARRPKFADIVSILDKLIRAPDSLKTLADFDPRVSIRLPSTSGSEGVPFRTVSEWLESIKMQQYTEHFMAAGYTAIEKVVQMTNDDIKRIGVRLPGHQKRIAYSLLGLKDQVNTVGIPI

CCN1CCN(Cc2ccc(NC(=O)c3ccc(C)c(/C=C/c4cnc5[nH]ccc5c4OC)c3)cc2C(F)(F)F)CC1
residual activity [1]: 100%
percent of control [2]: 0.8%

CCN1CCN(Cc2ccc(NC(=O)c3ccc(C)c(Oc4ccnc5[nH]ccc45)c3)cc2C(F)(F)F)CC1
inhibition [3]: 92.7%
inhibition [4]: inactive
inhibition [5]: inactive
inhibition [6]: inactive
inhibition [7]: 7.6%
inhibition [8]: 72.6%
inhibition [9]: 28.6%
inhibition [10]: 5.8%
% of control [11]: 0.2%

CNc1cc(Oc2cc(C(=O)Nc3cc(N4CCN(C)CC4)cc(C(F)(F)F)c3)ccc2C)ncn1
inhibition (Ephrin type-A receptor 2): 25.1%
